For 16 molecules, T/C results are on record in PubChem BioAssay AID290 (DTP/NCI, 2004).

Where “and” joins values, the source holds several entries; their conditions need not be identical. Equal values may be shown once. Records with an inconclusive call do not appear.

In this assay the test system is mice, P1798 lymphosarcoma sc, survival or tumor weight T/C. Put plainly: NCI In Vivo Anticancer Drug Screen. Data for tumor model P1798 Lymphosarcoma (subcutaneous) in unknown mice. The protocol: The antitumor activity of compounds was measured in mice bearing transplantable tumors. Survival or tumor size were measured and the results are expressed as the measurement made in the treated group (T) divided by the measurement made in the vehicle treated control group (C). The tumor model used in this assay is P1798 Lymphosarcoma (subcutaneous) in unknown mice

[1] abbreviates: endpoint: mean tumor weight, dose: 12.5 mg/kg/injection, schedule: Q01DX010 (ip), vehicle: carboxymethylcellulose (CMC), higher = larger tumour.
Where [2] appears, read: endpoint: mean tumor weight, dose: 25.0 mg/kg/injection, schedule: Q01DX010 (ip), vehicle: carboxymethylcellulose (CMC), higher = larger tumour.
[3] abbreviates: endpoint: mean tumor weight, dose: 50.0 mg/kg/injection, schedule: Q01DX010 (ip), vehicle: carboxymethylcellulose (CMC), higher = larger tumour.
[4] abbreviates: endpoint: mean tumor weight, dose: 6.3 mg/kg/injection, schedule: Q01DX010 (ip), vehicle: carboxymethylcellulose (CMC), higher = larger tumour.

As to `O=P1(N(CCCl)CCCl)NCCCO1` (configuration not stated), the T/C (endpoint: mean tumor weight, dose: 6.3 mg/kg/injection, schedule: Q01DX010 (ip), vehicle: saline, higher = larger tumour) is 113 % of control and 107 % of control; the T/C (endpoint: mean tumor weight, dose: 13.0 mg/kg/injection, schedule: Q01DX011 (ip), vehicle: saline, higher = larger tumour) was 86 % of control; the T/C (endpoint: mean tumor weight, dose: 26.5 mg/kg/injection, schedule: Q01DX011 (ip), vehicle: saline, higher = larger tumour) was 121 % of control; the T/C (endpoint: mean tumor weight, dose: 40.0 mg/kg/injection, schedule: Q01DX011 (ip), vehicle: saline, higher = larger tumour) is 26 % of control; the T/C (endpoint: median survival time, dose: 3.12 mg/kg/injection, schedule: Q01DX010 (ip), vehicle: saline, higher = longer survival) is 80 % of control; the T/C (endpoint: median survival time, dose: 6.25 mg/kg/injection, schedule: Q01DX010 (ip), vehicle: saline, higher = longer survival) is 97 % of control. For the same molecule, the T/C was 99 % of control (endpoint: median survival time, dose: 6.3 mg/kg/injection, schedule: Q07DX005 (ip), vehicle: saline, higher = longer survival); 107 % of control (endpoint: median survival time, dose: 12.5 mg/kg/injection, schedule: Q01DX001 (ip), vehicle: saline, higher = longer survival); 96 % of control and 103 % of control (2×) (endpoint: median survival time, dose: 12.5 mg/kg/injection, schedule: Q01DX010 (ip), vehicle: saline, higher = longer survival); 106 % of control (endpoint: median survival time, dose: 12.5 mg/kg/injection, schedule: Q07DX005 (ip), vehicle: saline, higher = longer survival); 92 % of control (2×) and 101 % of control (endpoint: median survival time, dose: 25.0 mg/kg/injection, schedule: Q01DX001 (ip), vehicle: saline, higher = longer survival); 46 % of control and 98 % of control (2×) (endpoint: median survival time, dose: 25.0 mg/kg/injection, schedule: Q01DX010 (ip), vehicle: saline, higher = longer survival). Further, the T/C (endpoint: median survival time, dose: 25.0 mg/kg/injection, schedule: Q07DX005 (ip), vehicle: saline, higher = longer survival) was 103 % of control; the T/C (endpoint: median survival time, dose: 50.0 mg/kg/injection, schedule: Q01DX001 (ip), vehicle: saline, higher = longer survival) was 97 % of control and 99 % of control (2×); the T/C (endpoint: median survival time, dose: 50.0 mg/kg/injection, schedule: Q01DX010 (ip), vehicle: saline, higher = longer survival) was 29 % of control and 90 % of control (2×); the T/C (endpoint: median survival time, dose: 50.0 mg/kg/injection, schedule: Q07DX005 (ip), vehicle: saline, higher = longer survival) is 110 % of control; the T/C (endpoint: median survival time, dose: 100.0 mg/kg/injection, schedule: Q01DX001 (ip), vehicle: saline, higher = longer survival) is 114 % of control and 100 % of control (2×); the T/C (endpoint: median survival time, dose: 100.0 mg/kg/injection, schedule: Q01DX010 (ip), vehicle: saline, higher = longer survival) is 29 % of control. In addition, the T/C runs as follows: (endpoint: median survival time, dose: 100.0 mg/kg/injection, schedule: Q07DX005 (ip), vehicle: saline, higher = longer survival) 95 % of control; (endpoint: median survival time, dose: 200.0 mg/kg/injection, schedule: Q01DX001 (ip), vehicle: saline, higher = longer survival) 107 % of control; (endpoint: median survival time, dose: 200.0 mg/kg/injection, schedule: Q01DX010 (ip), vehicle: saline, higher = longer survival) 25 % of control; (endpoint: median survival time, dose: 400.0 mg/kg/injection, schedule: Q01DX001 (ip), vehicle: saline, higher = longer survival) 29 % of control.
In the case of `S=C(N=Nc1ccccc1)NNc1ccccc1`, under “endpoint: mean tumor weight, dose: 37.5 mg/kg/injection, schedule: Q01DX010 (ip), vehicle: carboxymethylcellulose (CMC), higher = larger tumour”, the T/C is 64 % of control.
`OCC1OC(n2cnc3c(=S)nc[nH]c32)C(O)C1O` (configuration not stated): the T/C was 115 % of control (endpoint: mean tumor weight, dose: 4.0 mg/kg/injection, schedule: Q01DX010 (ip), vehicle: carboxymethylcellulose (CMC), higher = larger tumour); 67 % of control (endpoint: mean tumor weight, dose: 8.0 mg/kg/injection, schedule: Q01DX010 (ip), vehicle: carboxymethylcellulose (CMC), higher = larger tumour); 45 % of control (endpoint: mean tumor weight, dose: 16.0 mg/kg/injection, schedule: Q01DX010 (ip), vehicle: carboxymethylcellulose (CMC), higher = larger tumour); 82 % of control (endpoint: mean tumor weight, dose: 31.0 mg/kg/injection, schedule: Q01DX010 (ip), vehicle: carboxymethylcellulose (CMC), higher = larger tumour).
With `N[C@@H](Cc1ccc(N(CCCl)CCCl)cc1)C(=O)O`, the T/C by setting is: (endpoint: mean tumor weight, dose: 1.25 mg/kg/injection, schedule: Q01DX010 (ip), vehicle: saline, higher = larger tumour) 49 % of control; (endpoint: mean tumor weight, dose: 2.5 mg/kg/injection, schedule: Q01DX010 (ip), vehicle: saline, higher = larger tumour) 29 % of control; (endpoint: mean tumor weight, dose: 4.0 mg/kg/injection, schedule: Q01DX011 (ip), vehicle: carboxymethylcellulose (CMC), higher = larger tumour) 13 % of control; (endpoint: mean tumor weight, dose: 5.0 mg/kg/injection, schedule: Q01DX010 (ip), vehicle: saline, higher = larger tumour) 16 % of control; (endpoint: median survival time, dose: 0.75 mg/kg/injection, schedule: Q01DX010 (sc), vehicle: saline, higher = longer survival) 112 % of control; (endpoint: median survival time, dose: 1.5 mg/kg/injection, schedule: Q01DX010 (sc), vehicle: saline, higher = longer survival) 104 % of control. In addition, the T/C (endpoint: median survival time, dose: 3.0 mg/kg/injection, schedule: Q01DX010 (sc), vehicle: saline, higher = longer survival) is 75 % of control; the T/C (endpoint: median survival time, dose: 6.0 mg/kg/injection, schedule: Q01DX010 (sc), vehicle: saline, higher = longer survival) is 52 % of control; the T/C (endpoint: median survival time, dose: 12.0 mg/kg/injection, schedule: Q01DX010 (sc), vehicle: saline, higher = longer survival) was 26 % of control.
For `Nc1nc(F)nc2c1ncn2C1OC(CO)C(O)C1O` (configuration not stated), the T/C is, setting by setting: (endpoint: mean tumor weight, dose: 0.75 mg/kg/injection, schedule: Q01DX011 (ip), vehicle: saline, higher = larger tumour) 73 % of control; (endpoint: mean tumor weight, dose: 1.5 mg/kg/injection, schedule: Q01DX011 (ip), vehicle: saline, higher = larger tumour) 30 % of control.
`Nc1ncnc2[nH]ncc12`: the T/C is, setting by setting: (endpoint: mean tumor weight, dose: 6.25 mg/kg/injection, schedule: Q01DX010 (ip), vehicle: carboxymethylcellulose (CMC), higher = larger tumour) 73 % of control; under setting [1], 64 % of control.
In the case of `N#CCSc1ncnc2nc[nH]c12`, the T/C under setting [2] is 49 % of control and the T/C under setting [3] was 46 % of control.
On to `Cc1cc(N(CCCl)CCCl)ccc1N=Nc1ccccc1C(=O)O`, for which the T/C (endpoint: mean tumor weight, dose: 3.75 mg/kg/injection, schedule: Q01DX010 (ip), vehicle: carboxymethylcellulose (CMC), higher = larger tumour) was 40 % of control and the T/C (endpoint: mean tumor weight, dose: 7.5 mg/kg/injection, schedule: Q01DX010 (ip), vehicle: carboxymethylcellulose (CMC), higher = larger tumour) is 26 % of control.
Consider `CC(=O)[C@@]1(O)CC[C@H]2[C@@H]3C[C@H](C)C4=CC(=O)C=C[C@]4(C)[C@@]3(F)[C@@H](O)C[C@@]21C`, for which the T/C was 37 % of control (endpoint: mean tumor weight, dose: 8.0 mg/kg/injection, schedule: Q01DX010 (sc), vehicle: steriod suspending solution, higher = larger tumour) and 18 % of control (endpoint: mean tumor weight, dose: 16.0 mg/kg/injection, schedule: Q01DX010 (sc), vehicle: steriod suspending solution, higher = larger tumour).
As to `CN(C)c1ccc(Nc2c3ccccc3nc3ccccc23)cc1`, the T/C (endpoint: mean tumor weight, dose: 3.15 mg/kg/injection, schedule: Q01DX010 (ip), vehicle: carboxymethylcellulose (CMC), higher = larger tumour) is 84 % of control; the T/C under setting [4] is 86 % of control; the T/C under setting [2] was 36 % of control; the T/C under setting [3] is 10 % of control.
For `O=C(O)c1ccc(-c2ccccc2)cc1`, the T/C is 101 % of control (endpoint: mean tumor weight, dose: 62.5 mg/kg/injection, schedule: Q01DX010 (ip), vehicle: carboxymethylcellulose (CMC), higher = larger tumour); 92 % of control (endpoint: mean tumor weight, dose: 125.0 mg/kg/injection, schedule: Q01DX010 (ip), vehicle: carboxymethylcellulose (CMC), higher = larger tumour); 95 % of control (endpoint: mean tumor weight, dose: 250.0 mg/kg/injection, schedule: Q01DX010 (ip), vehicle: carboxymethylcellulose (CMC), higher = larger tumour).
As for `O=c1cn[nH]c(=O)[nH]1`, under “endpoint: mean tumor weight, dose: 375.0 mg/kg/injection, schedule: Q01DX010 (ip), vehicle: carboxymethylcellulose (CMC), higher = larger tumour”, the T/C was 90 % of control.
On to `CSc1ncnc2nc[nH]c12`, for which the T/C is 45 % of control under setting [2]; 61 % of control under setting [3]; 56 % of control (endpoint: mean tumor weight, dose: 100.0 mg/kg/injection, schedule: Q01DX010 (ip), vehicle: carboxymethylcellulose (CMC), higher = larger tumour).
As to `Cn1c(N)nc2nc[nH]c2c1=S`, the T/C is 105 % of control (endpoint: mean tumor weight, dose: 3.1 mg/kg/injection, schedule: Q01DX010 (ip), vehicle: carboxymethylcellulose (CMC), higher = larger tumour); 59 % of control under setting [4]; 102 % of control (endpoint: mean tumor weight, dose: 10.0 mg/kg/injection, schedule: Q01DX010 (ip), vehicle: saline, higher = larger tumour); 91 % of control under setting [1]; 99 % of control (endpoint: mean tumor weight, dose: 20.0 mg/kg/injection, schedule: Q01DX010 (ip), vehicle: saline, higher = larger tumour); 101 % of control under setting [2]. The T/C (endpoint: mean tumor weight, dose: 40.0 mg/kg/injection, schedule: Q01DX010 (ip), vehicle: saline, higher = larger tumour) was 122 % of control and the T/C (endpoint: mean tumor weight, dose: 80.0 mg/kg/injection, schedule: Q01DX010 (ip), vehicle: saline, higher = larger tumour) is 114 % of control.
Take `CCOC(N)=O`: where the note is “endpoint: mean tumor weight, dose: 250.0 mg/kg/injection, schedule: Q01DX010 (ip), vehicle: saline, higher = larger tumour”, the T/C is 70 % of control and 76 % of control.
For the molecule `Nc1nc(=S)c2ncn(C3OC(CO)C(O)C3O)c2[nH]1` (configuration not stated), the T/C is, setting by setting: (endpoint: mean tumor weight, dose: 0.31 mg/kg/injection, schedule: Q01DX010 (ip), vehicle: carboxymethylcellulose (CMC), higher = larger tumour) 79 % of control; (endpoint: mean tumor weight, dose: 0.63 mg/kg/injection, schedule: Q01DX010 (ip), vehicle: carboxymethylcellulose (CMC), higher = larger tumour) 71 % of control; (endpoint: mean tumor weight, dose: 1.25 mg/kg/injection, schedule: Q01DX010 (ip), vehicle: carboxymethylcellulose (CMC), higher = larger tumour) 50 % of control; (endpoint: mean tumor weight, dose: 2.0 mg/kg/injection, schedule: Q01DX010 (ip), vehicle: saline, higher = larger tumour) 55 % of control; (endpoint: mean tumor weight, dose: 2.5 mg/kg/injection, schedule: Q01DX010 (ip), vehicle: carboxymethylcellulose (CMC), higher = larger tumour) 31 % of control; (endpoint: mean tumor weight, dose: 4.0 mg/kg/injection, schedule: Q01DX010 (ip), vehicle: saline, higher = larger tumour) 63 % of control.
